Results on four molecules are retold here after paper PMC6335420, “The cell cycle regulator GpsB functions as cytosolic adaptor for multiple cell wall enzymes” (Nature Communications, 2019).

Assay [1] has as its target T1, SpGpsB1-63Asp33Ala (Streptococcus pneumoniae, UniProt Q8DR57, D33A).
T1 construct: His6 (N, cleaved yes); made in house; host or cells: E. coli BL21(DE3)
In words: Fluorescence polarisation binding to SpGpsB1-63Asp33Ala. Particulars: FP, SpGpsB1-63Asp33Ala relative to wild-type SpGpsB1-63. The source says:
(§1) 75 the BsGpsB5-64:BsPBP11-17 complex.

Assay [2] has as its target T2, SpGpsB1-63 (Streptococcus pneumoniae, UniProt Q8DR57).
T2 construct: The SpGpsB1-63 expression construct (pET28SpGpsB1-63) was prepared by PCR amplification of gpsB; His6 (N, cleaved yes); made in house; host or cells: E. coli BL21(DE3)
In words: Fluorescence polarisation binding to SpGpsB1-63. The settings on record: FP.
Source text: as §1
A general note: Polarisation of emitted light reports the rotation of a fluorescent probe.

Assay [3] deals with GpsB. The experiment in a line: Displacement of pre-bound PBP peptides from GpsB. It counts as binding. The settings on record: 100-fold molar excess of free L-arginine.
In assay [4] the test system is BsYrrS. The experiment in a line: BACTH interaction with BsYrrS. It counts as cell-based, Bacillus subtilis. Particulars: E. coli BTH101, nutrient agar, 30 °C.
The subject of assay [5] is SpGpsB. The experiment in a line: BACTH interaction with SpGpsB. The settings on record: E. coli BTH101, 30 °C, 36-40 h. It counts as cell-based, Streptococcus pneumoniae. An excerpt: The target genes were amplified by the PCR from S. pneumoniae D39 chromosomal DNA. PCR fragments for pbp2a, mreC, pbp1a, pbp2x and pbp2b were purified, digested with appropriate restriction enzymes and cloned into the corresponding sites of the pKT25/pUT18C vectors to generate plasmids encoding the corresponding hybrid proteins fused at the C-terminal ends of the T25 and T18 fragments, respectively. Plasmids pKNT25-gpsB/pUT18-gpsB, pKNT25-stkP/pUT18-stkP and pKNT25-ezrA/pUT18-ezrA were already constructed. The mutated and truncated gpsB and pbp2a alleles were amplified from their respective DNA templates and the corresponding PCR products cloned into the corresponding sites of the BACTH vectors as described above for the wild-type alleles. E. coli DH5α transformants were selected on LB agar plates containing ampicillin (100 μg^−1mL^−1) or kanamycin (50 μg^−1mL^−1) and 0.4% glucose to repress leaky expression.
BACTH experiments, each pair of plasmids was co-transformed into the E. coli cya- strain BTH101 and co-transformation mixtures were spotted onto LB agar plates supplemented with ampicillin ([…]), kanamycin ([…]) and X-Gal (40 μg^−1mL^−1), followed by incubation at 30 °C. Plates were inspected and photographed after 24 and 40 h. Plasmid pairs pKNT25/pUT18 and pKT25-zip/pUT18C-zip were used as negative and positive controls, respectively. […]

Residues, ends and D or L forms follow the SMILES beside them. *: point of attachment. X1 = CN(C)c1ccc2c(-c3ccc(N4C(=O)CC(*)C4=O)cc3C(=O)[O-])c3ccc(=[N+](C)C)cc-3oc2c1

T2 sequence (Q8DR57 1-63): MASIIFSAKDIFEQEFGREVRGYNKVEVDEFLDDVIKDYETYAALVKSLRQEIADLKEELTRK
T1 sequence (Q8DR57 1-63 D33A): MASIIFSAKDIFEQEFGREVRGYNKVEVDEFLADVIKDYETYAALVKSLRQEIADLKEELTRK

In the case of `CC[C@H](C)[C@H](NC(=O)[C@@H]1CCCN1C(=O)[C@H](CSC1CC(=O)N(c2ccc(-c3c4ccc(=[N+](C)C)cc-4oc4cc(N(C)C)ccc34)c(C(=O)[O-])c2)C1=O)NC(=O)[C@@H](NC(=O)[C@H](CCC(N)=O)NC(=O)[C@H](C)NC(=O)[C@H](CC(C)C)NC(=O)[C@H](CCCCN)NC(=O)[C@H](CCCCN)NC(=O)[C@H](CCCNC(=N)N)NC(=O)[C@H](CC(=O)O)NC(=O)[C@H](CO)NC(=O)[C@H](CCCNC(=N)N)NC(=O)[C@H](CO)NC(=O)[C@H](CCCNC(=N)N)NC(=O)[C@H](CCCNC(=N)N)NC(=O)[C@H](CC(C)C)NC(=O)[C@@H](NC(=O)[C@@H](NC(=O)[C@H](CO)NC(=O)[C@H](CC(=O)O)NC(=O)[C@H](CO)NC(=O)[C@H](CC(=O)O)NC(=O)[C@H](CCSC)NC(=O)[C@H](CO)NC(=O)CN)[C@@H](C)O)[C@@H](C)CC)C(C)C)C(=O)O` (some centres unmarked) [TAMRA-SpPBP2a23-45] (H-GSMDSDSTILRRSRSDRKKLAQVC(X1)PI-OH), the “reduction in affinity on GpsB mutation” value in assay [1] was ~ 40 fold. Besides, in assay [2], the “binding to SpGpsB1-63 (in words)” value was “interacts”.
Take `N=C(N)NCCC[C@H](N)C(=O)O` [L-arginine]: the “displacement of pre-bound PBP peptides from GpsB” value in assay [3] is recorded as “does not displace pre-bound PBP peptides from GpsB”.

B1: BsPBP1: B. subtilis class A PBP1 (protein)
chain: MSDQFNSREARRKANSKSSPSPKKGKKRKKGGLFKKTLFTLLILFVLGVVGGAVTFAVMVSDAPSLDESKLKTPYSSTIYDKNGKEIAEVGAEKRTYVSIDEIPDVVKEAFIATEDARFYEHHGIDPVRIGGALVANFKDGFGAEGGSTITQQVVKNSLLSHQKTLKRKVQEVWLSIQLERNYSKDEILEMYLNRIYFSPRAYGIGKAAEEFFGVTDLSKLTVEQAATLAGMPQSPTAYNPVKNPDKAEKRRNIVLSLMKKQGFISDSQYNKAKKVAVKDEGVVSQKEYEKASTNKYSAFVEEVMKEIDEKSDVDPSADGLKIYTTLDTKAQDKLDELMDGDTVGFTEGMQGGVTLLDTKNGEVRAIGAGRNQPVGGFNYATQTKAQPGSTIKPILDYGPVIENKKWSTYEQIDDSAYTYSNGKPIRDWDRKYLGPISMRYALAQSRNIPALKAFQAVGKDTAVDFANGLGLGLTKDNVTEAYSIGGFGGNDGVSPLTMAGAYSAFGNNGTYNEPHFVKSIEFNDGTKLDLTPKSKSAMSDYTAFMITDMLKTAVKTGTGQLAQVPGVEVAGKTGTTNFDDNEVKRYNIASGGARDSWFVGYTPQYTAAVWTGMGENEAGKKSLSAEEQKVAKRIFAQLIADVDDGSGSFEKPDSVVEATVEKGSNPAKLAGPNTPSDKKLTEYFVKGTAPSTVSKTYEKEEKEETAKLSGLNVKYDKDNQSLTLSWNYDGDATFAVKQSVDGGSYSEIQNSSAKEAVISGVQPGSVYKFEVTAVSDDGKSTASTSYEVPKAEDDEDKKDQQQTDDEKQDDEKTQDDTQTDDSQKDDGQTDQDQTDDSTNDQDKKQDNTNTNPSDNNNQDQSNDNDNDNSNNQDTSDGDSNSGKNDSTGSDTNKNKTDTSNKTQTNSSSIEKTN
modifications: left off: His6, end not stated, cleaved
notes: B. subtilis class A PBP1
On to B1, for which the “BACTH interaction with BsYrrS” value in assay [4] is “interacted”.

B2: SpPBP1a: S. pneumoniae class A PBP1a (protein)
chain: MNKPTILRLIKYLSISFLSLVIAAIVLGGGVFFYYVSKAPSLSESKLVATTSSKIYDNKNQLIADLGSERRVNAQANDIPTDLVKAIVSIEDHRFFDHRGIDTIRILGAFLRNLQSNSLQGGSALTQQLIKLTYFSTSTSDQTISRKAQEAWLAIQLEQKATKQEILTYYINKVYMSNGNYGMQTAAQNYYGKDLNNLSLPQLALLAGMPQAPNQYDPYSHPEAAQDRRNLVLSEMKNQGYISAEQYEKAVNTPITDGLQSLKSASNYPAYMDNYLKEVINQVEEETGYNLLTTGMDVYTNVDQEAQKHLWDIYNTDEYVAYPDDELQVASTIVDVSNGKVIAQLGARHQSSNVSFGINQAVETNRDWGSTMKPITDYAPALEYGVYESTATIVHDEPYNYPGTNTPVYNWDRGYFGNITLQYALQQSRNVPAVETLNKVGLNRAKTFLNGLGIDYPSIHYSNAISSNTTESDKKYGASSEKMAAAYAAFANGGTYYKPMYIHKVVFSDGSEKEFSNVGTRAMKETTAYMMTDMMKTVLSYGTGRNAYLAWLPQAGKTGTSNYTDEEIENHIKTSQFVAPDELFAGYTRKYSMAVWTGYSNRLTPLVGNGLTVAAKVYRSMMTYLSEGSNPEDWNIPEGLYRNGEFVFKNGARSTWSSPAPQQPPSTESSSSSSDSSTSQSSSTTPSTNNSTTTNPNNNTQQSNTTPDQQNQNPQPAQP
modifications: left off: T25 or T18 fragment of adenylate cyclase (vectors pKT25, pUT18C), N-terminal, kept
notes: S. pneumoniae class A PBP1a
Turning to B2, the “BACTH interaction with SpGpsB” value in assay [5] is “interacted”.
